# Test results from patent US20120035180A1, “PHARMACEUTICAL COMPOSITION FOR TREATING CANCER COMPRISING CHLORIN E6-FOLIC ACID CONJUGATE COMPOUND AND CHITOSAN” (priority 2009, published 2012).
# How the values were obtained:
# HeLa tumor cells = assay: Cytotoxicity (antiproliferative assay) in the absence of light exposure; assay type: cell-based; conditions: 24 hr incubation
# Procedure: Cytotoxicity was analyzed, considering the intensity of proliferative processes in cells, photosensitizer concentration, and dose of optical power. For each point, 3 flasks with cell monolayer were used.
# The monolayer culture of HeLa tumor cells was chosen and used as the cell.
# The culture of HeLa tumor cells was grown in nutrient medium 199 or in nutrient medium containing hemohydrolyzate supplemented with 10% fetal bovine serum and […] of kanamycin.
# On day 4 after the cell culture was inoculated in the flasks (100,000 cells per 2.0 ml of nutrient medium), the photosensitizer was added at a concentration of 1, 2.5, 5.0, 10.0, 20.0, or 30.0 mg/ml.
# Flasks with light-protective cover (dark cytotoxicity) were incubated at 37.5° C. for 1 hour. The cells were washed with Hank's solution 4 times. 2.0 ml of fresh nutrient medium were added, and the cells were irradiated at the temperature of melting ice for 5, 10, 15 or 20 mins by the light flux of a “METALAZ” laser medical device (wavelength: 627.8 nm, 578.2 or 510.6 nm) or “LD 680-2000” (wavelength: 670-690 nm), depending on the wavelength of maximum spectral absorption of the studied photosensitizer, at a dose of 40 J/cm^2. After 20-24 hours, the number of tumor cell was counted in Goriaev's chamber.
# [1] = Generation of singlet oxygen (luminescence at 1270 nm); assay type: physicochemical; conditions: air saturated buffer solution, room temperature
# Procedure: Based on new Hamamatsu FEU with InP/InGaAsP semi-conductor photocathodes, a highly sensitive laser fluorometer for registration of luminescence signals in the range of 950-1400 nm with nanosecond time resolution was used.
# Photoresponse of this process (φΔ) was measured by a relative method through integral intensity of singlet oxygen luminescence at a wavelength of 1270 nm. Excitation was conducted at a wavelength of 531 nm (pulse energy 4 microJ, frequency 1kHz). Tests were made in air saturated buffer solutions at room temperature. […] The φΔ in D2O was considered as 0.7.
# To analyze kinetic curves of singlet oxygen luminescence, the following function was used:
# wherein A is a coefficient depending on initial concentrations of interacted reagents, and k1 and k2 are constants of luminescence signal increase and extinction, respectively.
# In the case when the deactivation rate constant Kτ of the photosensitizer triplet state exceeds the deactivation rate constant KΔ of the molecular oxygen […] state, the constant of increase k1 corresponds to Kτ, and constant of extinction k2 corresponds to KΔ. In the case of Kτ<KΔ, inversion of the kinetics of singlet oxygen luminescence occurs. In this case, k2=Kτ and k1=KΔ. […] Thus, based on kinetic data, the life times of singlet oxygen and triplet state can be calculated.
# HeLa cell culture = assay: Phototoxicity (photodynamic activity), 3.5 h incubation, 3.3 joule/cm^2; assay type: cell-based; set-up: number of HELA cells (relative to the control): unit not given here; conditions: for number of HELA cells (relative to the control): incubation 3.5 hours
# Procedure: To examine the photodynamic effects of a photosensitizer on a HeLa cell culture, the photosensitizer solution was added to the nutrient media at a final concentration of 0.1, 0.5, 1.0, 5.0 or 10 mcg/ml on day 3 after transplanting the cell culture into flasks. The flasks were wrapped with a light protecting cover, and incubated at 37° C. for 3.5 hours. Then, the cells were washed with Hank's solution, and exposed on ice by a laser medical device “LD 680-2000” (wavelength: 670-690 nm) at a dose of 3.3 joule/cm^2. After 20-24 hours, the available cell monolayer was dispersed using a 0.02%-Versene solution, and the number of tumor cells was calculated in Goriaev's chamber. For each point, 3 flasks were used.
# Hela cells = assay: Phototoxicity, 24 h incubation, 1.5-15 joule/cm^2; assay type: cell-based; conditions: 670-690 nm
# Procedure: In other experiment, the cells were incubated with photosensitizers at 37° C. for 24 hours, and irradiated by exposed on ice by a laser medical device “LD 680-2000” (wavelength of 670-690 nm) in a dose of 1.5-15 joule/cm^2.
substance,measurement,setting,value
[γ-(6-aminohexyl)folic acid]-chlorin e6 [chlorin e6 conjugate],cell survival rates,HeLa tumor cells,about 90%
same,τt (life time in the triplet state) from singlet oxygen luminescence kinetics,[1],2.0±0.2 microsec.
same,τΔ (life time of singlet oxygen) from luminescence kinetics,[1],3.6±0.2 microsec.
same,inhibition of proliferation of Hela cells,"HeLa cell culture; concentration of 5-10 mcg/ml, photoexposure",fully inhibited
same,number of HELA cells (relative to the control),"HeLa cell culture; photoexposure 3.3 joule/cm^2, conc. 0.1 mcg/ml",65.1
same,number of HELA cells (relative to the control),"HeLa cell culture; photoexposure 3.3 joule/cm^2, conc. 0.5 mcg/ml",42.3
same,number of HELA cells (relative to the control),"HeLa cell culture; photoexposure 3.3 joule/cm^2, conc. 1.0 mcg/ml",12.6
same,number of HELA cells (relative to the control),"HeLa cell culture; photoexposure 3.3 joule/cm^2, conc. 5.0 mcg/ml",0.1
same,phototoxicity / photosensitivity in survival test,Hela cells,improved the photosensitivity
